{"source": "paper PMC7803792", "about": "(Slas Discovery, 2021)", "key": {"[1]": {"molecular_target": "T1, SARS-CoV-2 nsp10-nsp16 complex (Severe acute respiratory syndrome coronavirus 2, UniProt P0DTD1)", "assay": "FP-based RNA displacement assay", "format": "binding", "settings": "concentration for 50% displacement of 30 nM FAM-RNA from 0.5 µM nsp10-nsp16 complex"}, "[2]": {"molecular_target": "T1, SARS-CoV-2 nsp10-nsp16 complex", "assay": "Isothermal titration calorimetry", "format": "binding"}, "[3]": {"molecular_target": "SARS-CoV nsp10-nsp16 complex", "settings": "cited from earlier work"}, "[4]": {"molecular_target": "T1, SARS-CoV-2 nsp10-nsp16 complex", "settings": "FP, 30 nM FAM-RNA, maximum FP signal"}}, "note": "Entries after “also recorded” stand apart in the source; their conditions may differ."}
{"compound": "Nc1nc2c(ncn2[C@@H]2O[C@H](COP(=O)(O)OP(=O)(O)OP(=O)(O)OC[C@H]3O[C@@H](n4cnc5c(=O)[nH]c(N)nc54)[C@H](O)[C@@H]3O)[C@@H](O)[C@H]2O)c(=O)[nH]1", "note": "[GpppG, G(5′)ppp(5′)G]", "values": [{"measurement": "Kdisp (K displacement)", "setting": "[1]", "result": "unable to displace; also recorded: did not disrupt; also recorded: no RNA displacement"}]}
{"compound": "C[S+](CC[C@H](N)C(=O)[O-])C[C@H]1O[C@@H](n2cnc3c(N)ncnc32)[C@H](O)[C@@H]1O", "note": "(stereo partly drawn) [SAM, S-adenosyl-L-methionine]", "values": [{"measurement": "Kd", "setting": "[2]", "result": "3.4 ± 1.5", "unit": "µM"}, {"measurement": "Kd", "setting": "[3]", "result": "5.59 ± 1.15", "unit": "µM"}]}
{"compound": "Cn1c[n+]([C@@H]2O[C@H](COP(=O)(O)OP(=O)(O)OP(=O)(O)OC[C@H]3O[C@@H](n4cnc5c(N)ncnc54)[C@H](O)[C@@H]3O)[C@@H](O)[C@H]2O)c2nc(N)[nH]c(=O)c21", "note": "[N7-meGpppA, m7G(5′)ppp(5′)A]", "values": [{"measurement": "Kdisp (K displacement)", "setting": "[1]", "result": "20 ± 6", "unit": "µM"}]}
{"compound": "Nc1nc2c(ncn2[C@@H]2O[C@H](COP(=O)(O)OP(=O)(O)OP(=O)(O)OC[C@H]3O[C@@H](n4cnc5c(N)ncnc54)[C@H](O)[C@@H]3O)[C@@H](O)[C@H]2O)c(=O)[nH]1", "note": "[GpppA, G(5′)ppp(5′)A]", "values": [{"measurement": "Kdisp (K displacement)", "setting": "[1]", "result": "unable to displace; also recorded: did not disrupt; also recorded: no RNA displacement"}]}
{"compound": "Cn1c[n+]([C@@H]2O[C@H](COP(=O)(O)OP(=O)(O)OP(=O)(O)OC[C@H]3O[C@@H](n4cnc5c(=O)[nH]c(N)nc54)[C@H](O)[C@@H]3O)[C@@H](O)[C@H]2O)c2nc(N)[nH]c(=O)c21", "note": "[N7-meGpppG, m7G(5′)ppp(5′G]", "values": [{"measurement": "Kdisp (K displacement)", "setting": "[1]", "result": "17 ± 3", "unit": "µM"}]}
{"compound": "5′ N7-meGpppACCCCC-FAM 3′", "values": [{"measurement": "Bmax", "setting": "[4]", "result": "270 ± 5", "unit": "mP"}]}
